Values of other authors as cited in patent publication US20050009776A1, “Method of treating atrial fibrillation or atrial flutter” (Aderis Pharmaceuticals, Inc., priority 2003, published 2005).

Conditions: cited from earlier work

For Nc1ncnc2c1ncn2[C@@H]1O[C@H](CO)[C@@H](O)[C@H]1O [adenosine], the half-life is given as 10 s.
